Laboratory results published in US20230355646A1, “AUTOPHAGY ACTIVATOR” (Resonac Corporation, priority 2020, published 2023).

What was measured:
Format in all cases: cell-based
LC3 gene = LC3 gene expression promoting effect in human senescent fibroblasts (quantitative real-time PCR)
Procedure: (§1) Normal human fibroblasts (NB1RGB, RIKEN BRC Cell Bank) were cultured until confluent in D-MEM medium (manufactured by Sigma-Aldrich) to which 10% fetal bovine serum (manufactured by MP Biomedicals) was added. Thereafter, the cells were treated with 250 μM aqueous hydrogen peroxide for 2 hours, and cultured for 24 hours in D-MEM medium to which fresh 10% fetal bovine serum was added. The treatment with aqueous hydrogen peroxide and the cell culture operation were repeated three times, and the obtained fibroblasts were used as senescent fibroblasts.
(§2) The prepared senescent fibroblasts were prepared at a seeding density of 10000 cells/cm^2 and cultured for 24 hours in D-MEM medium (manufactured by Sigma-Aldrich) to which 10% fetal bovine serum (manufactured by MP Biomedicals) was added. […]
(§3) Then, using Nucleospin (registered trademark) RNA kit (manufactured by Takara Bio Inc.), RNA was extracted from senescent fibroblasts or normal human fibroblasts in each example, and cDNA was synthesized from the obtained RNA. Next, using this cDNA as a template, by quantitative real-time PCR, the expression level of each gene was quantified using primers (manufactured by Takara Bio Inc.) specific to the LC3 gene, ATG5 gene, and ATG7 gene, respectively. […]

mTOR gene = mTOR gene expression suppression effect in human senescent fibroblasts (quantitative real-time PCR)
Procedure: as §1, §2
as §3, with “of mTOR” for “of each”, “to mTOR gene.” for “to the LC3 gene, ATG5 gene, and ATG7 gene, respectively.”

ATG5 gene = ATG5 gene expression promoting effect in human senescent fibroblasts (quantitative real-time PCR)
Procedure: as §1, §2, §3

[1] = 10^−2% (V/V) methyl hesperidin or hesperidin, additional ingredient where in the example, 24 hours, Comparative Example 1 (DMSO) = 1.00
[2] = compared to DMSO only of Comparative Example 1

COc1ccc([C@@H]2CC(=O)c3c(O)cc(O[C@@H]4O[C@H](CO[C@@H]5O[C@@H](C)[C@H](O)[C@@H](O)[C@H]5O)[C@@H](O)[C@H](O)[C@H]4O)cc3O2)cc1O [Comparative Example 2, hesperidin]
Relative gene expression level LC3 (LC3 gene; [1]): <0 | expression level of the LC3 gene (in words) (LC3 gene; [2]): more decreased | Relative gene expression level mTOR (mTOR gene; 10^−2% (V/V) methyl hesperidin or hesperidin, additional ingredient where in the example, 24 hours, Comparative Example 3 (DMSO) = 1.00): 1.16 | expression level of mTOR gene (in words) (mTOR gene; compared to DMSO only of Comparative Example 3): almost the same | Relative gene expression level ATG5 (ATG5 gene; [1]): 0.93 | expression level of the ATG5 gene (in words) (ATG5 gene; [2]): more decreased
